Legend:
Assay type in all cases: functional
[1] = Cytotoxicity against human HCT116 cells assessed as growth inhibition at 100 uM after 2 days by MTT assay; conditions: HCT-116, 48 h, read-out: GI
[2] = Cytotoxicity against human HCT116 cells assessed as growth inhibition at 10 uM after 2 days by MTT assay; conditions: HCT-116, 48 h, read-out: GI
[3] = Cytotoxicity against human SKBR3 cells assessed as growth inhibition at 100 uM after 2 days by MTT assay; conditions: SK-BR-3, 48 h, read-out: GI
[4] = Cytotoxicity against human SKBR3 cells assessed as growth inhibition at 10 uM after 2 days by MTT assay; conditions: SK-BR-3, 48 h, read-out: GI
[5] = Antiproliferative activity against human MOLT4 cells assessed as cell growth at 10^-5 M after 48 hrs by sulforhodamine B assay; conditions: MOLT-4, 48 h, read-out: Activity
[6] = test system: SR; assay: Antiproliferative activity against human SR cells assessed as cell growth at 10^-5 M after 48 hrs by sulforhodamine B assay; conditions: read-out: Activity
[7] = test system: EKVX; assay: Antiproliferative activity against human EKVX cells assessed as cell growth at 10^-5 M after 48 hrs by sulforhodamine B assay; conditions: read-out: Activity
[8] = Antiproliferative activity against human HOP92 cells assessed as cell growth at 10^-5 M after 48 hrs by sulforhodamine B assay; conditions: HOP-92, 48 h, read-out: Activity
[9] = test system: NCI-H226; assay: Antiproliferative activity against human NCI-H226 cells assessed as cell growth at 10^-5 M after 48 hrs by sulforhodamine B assay; conditions: NCI-H226, 48 h, read-out: Activity
[10] = test system: NCI-H23; assay: Antiproliferative activity against human NCI-H23 cells assessed as cell growth at 10^-5 M after 48 hrs by sulforhodamine B assay; conditions: NCI-H23, 48 h, read-out: Activity
[11] = test system: NCI-H322M; assay: Antiproliferative activity against human NCI-H322M cells assessed as cell growth at 10^-5 M after 48 hrs by sulforhodamine B assay; conditions: read-out: Activity
[12] = Antiproliferative activity against human HCT116 cells assessed as cell growth at 10^-5 M after 48 hrs by sulforhodamine B assay; conditions: HCT-116, 48 h, read-out: Activity
[13] = Antiproliferative activity against human HCT15 cells assessed as cell growth at 10^-5 M after 48 hrs by sulforhodamine B assay; conditions: HCT-15, 48 h, read-out: Activity
[14] = test system: KM12; assay: Antiproliferative activity against human KM12 cells assessed as cell growth at 10^-5 M after 48 hrs by sulforhodamine B assay; conditions: KM12, 48 h, read-out: Activity
[15] = Antiproliferative activity against human SW620 cells assessed as cell growth at 10^-5 M after 48 hrs by sulforhodamine B assay; conditions: SW-620, 48 h, read-out: Activity
[16] = Antiproliferative activity against human SF268 cells assessed as cell growth at 10^-5 M after 48 hrs by sulforhodamine B assay; conditions: SF-268, 48 h, read-out: Activity
[17] = Antiproliferative activity against human SF295 cells assessed as cell growth at 10^-5 M after 48 hrs by sulforhodamine B assay; conditions: SF-295, 48 h, read-out: Activity
[18] = Antiproliferative activity against human SF539 cells assessed as cell growth at 10^-5 M after 48 hrs by sulforhodamine B assay; conditions: SF-539, 48 h, read-out: Activity
[19] = Antiproliferative activity against human SNB19 cells assessed as cell growth at 10^-5 M after 48 hrs by sulforhodamine B assay; conditions: SNB-19, 48 h, read-out: Activity
[20] = Antiproliferative activity against human SNB75 cells assessed as cell growth at 10^-5 M after 48 hrs by sulforhodamine B assay; conditions: SNB-75, 48 h, read-out: Activity
[21] = test system: Malme-3M; assay: Antiproliferative activity against human MALME-3M cells assessed as cell growth at 10^-5 M after 48 hrs by sulforhodamine B assay; conditions: read-out: Activity
[22] = test system: M14; assay: Antiproliferative activity against human M14 cells assessed as cell growth at 10^-5 M after 48 hrs by sulforhodamine B assay; conditions: M14, 48 h, read-out: Activity
[23] = test system: SK-MEL-28; assay: Antiproliferative activity against human SK-MEL-28 cells assessed as cell growth at 10^-5 M after 48 hrs by sulforhodamine B assay; conditions: SK-MEL-28, 48 h, read-out: Activity
[24] = test system: SK-MEL-5; assay: Antiproliferative activity against human SK-MEL-5 cells assessed as cell growth at 10^-5 M after 48 hrs by sulforhodamine B assay; conditions: SK-MEL-5, 48 h, read-out: Activity
[25] = Antiproliferative activity against human UACC257 cells assessed as cell growth at 10^-5 M after 48 hrs by sulforhodamine B assay; conditions: UACC-257, 48 h, read-out: Activity
[26] = Antiproliferative activity against human IGROV1 cells assessed as cell growth at 10^-5 M after 48 hrs by sulforhodamine B assay; conditions: IGROV-1, 48 h, read-out: Activity
[27] = Antiproliferative activity against human OVCAR5 cells assessed as cell growth at 10^-5 M after 48 hrs by sulforhodamine B assay; conditions: OVCAR-5, 48 h, read-out: Activity
[28] = test system: 786-0; assay: Antiproliferative activity against human 786-0 cells assessed as cell growth at 10^-5 M after 48 hrs by sulforhodamine B assay; conditions: 786-0, 48 h, read-out: Activity
[29] = test system: A498; assay: Antiproliferative activity against human A498 cells assessed as cell growth at 10^-5 M after 48 hrs by sulforhodamine B assay; conditions: A498, 48 h, read-out: Activity
[30] = test system: ACHN; assay: Antiproliferative activity against human ACHN cells assessed as cell growth at 10^-5 M after 48 hrs by sulforhodamine B assay; conditions: read-out: Activity
[31] = Antiproliferative activity against human Caki1 cells assessed as cell growth at 10^-5 M after 48 hrs by sulforhodamine B assay; conditions: CAKI-1, 48 h, read-out: Activity
[32] = Antiproliferative activity against human RXF393 cells assessed as cell growth at 10^-5 M after 48 hrs by sulforhodamine B assay; conditions: RXF 393, 48 h, read-out: Activity
[33] = test system: SN12C; assay: Antiproliferative activity against human SN12C cells assessed as cell growth at 10^-5 M after 48 hrs by sulforhodamine B assay; conditions: read-out: Activity
[34] = Antiproliferative activity against human DU145 cells assessed as cell growth at 10^-5 M after 48 hrs by sulforhodamine B assay; conditions: DU-145, 48 h, read-out: Activity
[35] = test system: MCF7; assay: Antiproliferative activity against human MCF7 cells assessed as cell growth at 10^-5 M after 48 hrs by sulforhodamine B assay; conditions: MCF7, 48 h, read-out: Activity
[36] = Antiproliferative activity against human Hs 578T cells assessed as cell growth at 10^-5 M after 48 hrs by sulforhodamine B assay; conditions: read-out: Activity
[37] = Antiproliferative activity against human BT549 cells assessed as cell growth at 10^-5 M after 48 hrs by sulforhodamine B assay; conditions: BT-549, 48 h, read-out: Activity
[38] = test system: MDA-MB-468; assay: Antiproliferative activity against human MDA-MB-468 cells assessed as cell growth at 10^-5 M after 48 hrs by sulforhodamine B assay; conditions: MDA-MB-468, 48 h, read-out: Activity

Row | Structure (SMILES) | inhibition of growth at 100 µM [1] [%] | inhibition of growth at 10 µM [2] [%] | inhibition of growth at 100 µM [3] [%] | inhibition of growth at 10 µM [4] [%] | growth at 10 µM [5] [%] | growth at 10 µM [6] [%] | growth at 10 µM [7] [%] | growth at 10 µM [8] [%] | growth at 10 µM [9] [%] | growth at 10 µM [10] [%] | growth at 10 µM [11] [%] | growth at 10 µM [12] [%] | growth at 10 µM [13] [%] | growth at 10 µM [14] [%] | growth at 10 µM [15] [%] | growth at 10 µM [16] [%] | growth at 10 µM [17] [%] | growth at 10 µM [18] [%] | growth at 10 µM [19] [%] | growth at 10 µM [20] [%] | also measured
1 | CNC(=O)c1cc(Oc2ccc3nc(NC(=O)Nc4ccc(F)cc4F)sc3c2)ccn1 | 86.3 | 56.9 | 79.5 | 61.6 | 82.4 | 80.4 | 89.8 | -13.7 | 52.8 | 47 | 62.2 | 20.7 | 84 | 72.6 | 99.9 | 76.1 | 76.7 | 61.7 | 71.1 | 19.2 | growth at 10 µM [21]: 46.2%; growth at 10 µM [22]: 69.1%; growth at 10 µM [23]: 52.1%; growth at 10 µM [24]: 39%; growth at 10 µM [25]: 74.3%; growth at 10 µM [26]: 84.2%; growth at 10 µM [27]: 95.2%; growth at 10 µM [28]: 64%; growth at 10 µM [29]: 10.9%; growth at 10 µM [30]: 60.6%; growth at 10 µM [31]: 88.4%; growth at 10 µM [32]: 42.3%; growth at 10 µM [33]: 69.2%; growth at 10 µM [34]: 65.7%; growth at 10 µM [35]: 66.8%; growth at 10 µM [36]: 44.5%; growth at 10 µM [37]: 100%; growth at 10 µM [38]: 51.2%
2 | CNC(=O)c1cc(Oc2ccc3nc(NC(=O)Nc4ccc(C(F)(F)F)cc4)sc3c2)ccn1 | 74.9 | 64.8 | 79.6 | 69.9 | 73.3 | 70.6 | 53.5 | 74.4 | 85.6 | 63.4 | 80.5 | 7.67 | 54.2 | 65 | 37.9 | 65 | 63.2 | 82.2 | 79.3 | 29.1 | growth at 10 µM [21]: 20.8%; growth at 10 µM [22]: 35.8%; growth at 10 µM [23]: 68.9%; growth at 10 µM [24]: 56.9%; growth at 10 µM [25]: 86.7%; growth at 10 µM [26]: 70.9%; growth at 10 µM [27]: 93.9%; growth at 10 µM [28]: 35.5%; growth at 10 µM [29]: 98.8%; growth at 10 µM [30]: 73.4%; growth at 10 µM [31]: 92%; growth at 10 µM [32]: 85.5%; growth at 10 µM [33]: 71.2%; growth at 10 µM [34]: 48.9%; growth at 10 µM [35]: 42%; growth at 10 µM [36]: 30%; growth at 10 µM [37]: 62.3%; growth at 10 µM [38]: 49.9%

Source: ChEMBL document CHEMBL3797052 (Eur J Med Chem, 2016)
